According to patent US6737383B1, “Herbicidal oxadiazolidines” (priority 1999, dated 2004):

Tests used:
velvetleaf = test: Test B pre/postemergence velvetleaf; assay type: in vivo, Abutilon theophrasti
Procedure, shortened: (§1)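 Response is a visual 0-to-10 score relative to untreated plants, where 0 means no effect and 10 means complete control, taken twelve to sixteen days after application. Treatments went onto soil at planting and onto foliage of 1- to 4-leaf plants, using a surfactant-containing non-phytotoxic solvent.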

blackgrass = test: Test B pre/postemergence blackgrass; assay type: in vivo, Alopecurus myosuroides
Procedure, shortened: as §1

cocklebur = test: Test B pre/postemergence cocklebur; assay type: in vivo, Xanthium strumarium
Procedure, shortened: as §1

soybean = test: Test B pre/postemergence soybean; assay type: in vivo, Glycine max
Procedure, shortened: as §1

rape = test: Test B pre/postemergence rape; assay type: in vivo, Brassica napus
Procedure, shortened: as §1

crabgrass = test: Test B pre/postemergence crabgrass; assay type: in vivo, Digitaria sanguinalis
Procedure, shortened: as §1

surinam grass = test: Test B pre/postemergence surinam grass; assay type: in vivo, Brachiaria decumbens
Procedure, shortened: as §1

smallflower flatsedge = test: Test B flood test smallflower flatsedge; assay type: in vivo, Cyperus difformis; conditions: for S. Flatsedge plant response rating: scale of 0 to 10 where 0 is no effect and 10 is complete control
Procedure, shortened: (§2)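 Flood test on plants grown to the 2-leaf stage; treated plants kept in greenhouse twelve to sixteen days, then visually rated against controls on a 0 (no effect) to 10 (complete control) scale.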

corn = test: Test B pre/postemergence corn; assay type: in vivo, Zea mays
Procedure, shortened: as §1

bamyardgrass = test: Test B flood test barnyardgrass; assay type: in vivo, Echinochloa crus-galli; conditions: for Plant response rating, Barnyardgrass: scale 0 to 10, 0 is no effect, 10 is complete control; for Barnyardgrass plant response rating: scale of 0 to 10 where 0 is no effect and 10 is complete control
Procedure, shortened: as §2

wild oat = test: Test B pre/postemergence wild oat; assay type: in vivo, Avena fatua
Procedure, shortened: as §1

wheat = test: Test B pre/postemergence wheat; assay type: in vivo, Triticum aestivum
Procedure, shortened: as §1

duck salad = test: Test B flood test duck salad; assay type: in vivo, Heteranthera limosa; conditions: for Plant response rating, Ducksalad: scale 0 to 10, 0 is no effect, 10 is complete control; for Ducksalad plant response rating: scale of 0 to 10 where 0 is no effect and 10 is complete control
Procedure, shortened: as §2

giant foxtail = test: Test B pre/postemergence giant foxtail; assay type: in vivo, Setaria faberii
Procedure, shortened: as §1

morningglory = test: Test B pre/postemergence morningglory; assay type: in vivo, Ipomoea hederacea
Procedure, shortened: as §1

[1] = Postemergence, Rate 250 g/ha, scale 0 to 10, 0 is no effect, 10 is complete control
[2] = Postemergence, Rate 500 g/ha, scale of 0 to 10 where 0 is no effect and 10 is complete control
[3] = Preemergence, Rate 62 g/ha, scale 0 to 10 (0 no effect, 10 complete control)
[4] = Preemergence, Rate 125 g/ha, scale of 0 to 10 where 0 is no effect and 10 is complete control
[5] = Preemergence, Rate 250 g/ha, scale 0 to 10, 0 is no effect, 10 is complete control
[6] = Preemergence, Rate 500 g/ha, scale 0 to 10, 0 is no effect, 10 is complete control
[7] = Rate 62 g/ha, Postemergence, scale of 0 to 10 where 0 is no effect and 10 is complete control
[8] = Postemergence, Rate 125 g/ha, scale 0 to 10, 0 is no effect, 10 is complete control
[9] = Preemergence, Rate 250 g/ha, scale of 0 to 10 where 0 is no effect and 10 is complete control
[10] = Postemergence section (flood test species), Rate 500 g/ha
[11] = Rate 62 g/ha, Postemergence (flood test species)
[12] = Postemergence (flood test), Rate 125 g/ha
[13] = flood test species, listed under Postemergence, Rate 250 g/ha

Compound: CC(C)N(C(=O)n1oc(=O)n(CCC(F)(F)F)c1=O)c1ccc(F)cc1 [Compound 397]
- Plant response rating, Velvetleaf (velvetleaf; [1]): 0
- Velvetleaf plant response rating (velvetleaf; [2]): 0
- Plant response rating, Velvetleaf (velvetleaf; [3]): 0
- Plant response rating, Velvetleaf (velvetleaf; [4]): 2
- Velvetleaf plant response rating (velvetleaf; [5]): 6
- Velvetleaf plant response rating (velvetleaf; [6]): 6
- Velvetleaf plant response rating (velvetleaf; [7]): 0
- Plant response rating, Blackgrass (blackgrass; [8]): 8
- Plant response rating, Blackgrass (blackgrass; [1]): 9
- Blackgrass plant response rating (blackgrass; [2]): 9
- Plant response rating, Blackgrass (blackgrass; [3]): 7
- Plant response rating, Blackgrass (blackgrass; [4]): 9
- Blackgrass plant response rating (blackgrass; [9]): 10
- Blackgrass plant response rating (blackgrass; [6]): 10
- Blackgrass plant response rating (blackgrass; [7]): 6
- Plant response rating, Cocklebur (cocklebur; [8]): 0
- Plant response rating, Cocklebur (cocklebur; [1]): 0
- Cocklebur plant response rating (cocklebur; [2]): 0
- Plant response rating, Cocklebur (cocklebur; [3]): 0
- Plant response rating, Cocklebur (cocklebur; [4]): 0
- Cocklebur plant response rating (cocklebur; [5]): 0
- Cocklebur plant response rating (cocklebur; [6]): 0
- Cocklebur plant response rating (cocklebur; [7]): 0
- Plant response rating, Soybean (soybean; [1]): 5
- Soybean plant response rating (soybean; [2]): 6
- Plant response rating, Soybean (soybean; [3]): 0
- Plant response rating, Soybean (soybean; [4]): 0
- Soybean plant response rating (soybean; [5]): 0
- Soybean plant response rating (soybean; [6]): 0
- Soybean plant response rating (soybean; [7]): 3
- Plant response rating, Rape (rape; [1]): 0
- Rape plant response rating (rape; [2]): 2
- Plant response rating, Rape (rape; [3]): 3
- Plant response rating, Rape (rape; [4]): 9
- Rape plant response rating (rape; [5]): 10
- Rape plant response rating (rape; [6]): 10
- Rape plant response rating (rape; [7]): 0
- Plant response rating, Crabgrass (crabgrass; [8]): 6
- Plant response rating, Crabgrass (crabgrass; [1]): 9
- Crabgrass plant response rating (crabgrass; [2]): 9
- Plant response rating, Crabgrass (crabgrass; [3]): 10
- Plant response rating, Crabgrass (crabgrass; [4]): 10
- Crabgrass plant response rating (crabgrass; [5]): 10
- Crabgrass plant response rating (crabgrass; [6]): 10
- Crabgrass plant response rating (crabgrass; [7]): 2
- Plant response rating, B. signalgrass (surinam grass; [8]): 0
- Plant response rating, B. signalgrass (surinam grass; [1]): 2
- B. signalgrass plant response rating (surinam grass; [2]): 8
- Plant response rating, B. signalgrass (surinam grass; [3]): 3
- Plant response rating, B. signalgrass (surinam grass; [4]): 6
- B. signalgrass plant response rating (surinam grass; [9]): 9
- B. signalgrass plant response rating (surinam grass; Preemergence, Rate 500 g/ha, scale of 0 to 10 where 0 is no effect and 10 is complete control): 10
- B. signalgrass plant response rating (surinam grass; [7]): 0
- S. Flatsedge plant response rating (smallflower flatsedge; [10]): 0
- S. Flatsedge plant response rating (smallflower flatsedge; [11]): 0
- Plant response rating, S. Flatsedge (smallflower flatsedge; flood test species, listed under Postemergence, Rate 250 g/ha, scale 0 to 10, 0 is no effect, 10 is complete control): 0
- Plant response rating, Corn (corn; [8]): 0
- Plant response rating, Corn (corn; [1]): 0
- Corn plant response rating (corn; [2]): 0
- Plant response rating, Corn (corn; [3]): 0
- Plant response rating, Corn (corn; [4]): 0
- Corn plant response rating (corn; [5]): 3
- Corn plant response rating (corn; [6]): 8
- Corn plant response rating (corn; [7]): 0
- Plant response rating, Barnyardgrass (bamyardgrass; [12]): 0
- Barnyardgrass plant response rating (bamyardgrass; [10]): 0
- Barnyardgrass plant response rating (bamyardgrass; [11]): 0
- Plant response rating, Barnyardgrass (bamyardgrass; [13]): 0
- Wild oats plant response rating (wild oat; [2]): 5
- Plant response rating, Wild oats (wild oat; [3]): 2
- Plant response rating, Wild oats (wild oat; [4]): 5
- Wild oats plant response rating (wild oat; [5]): 7
- Wild oats plant response rating (wild oat; [6]): 10
- Wild oats plant response rating (wild oat; [7]): 0
- Wheat plant response rating (wheat; [2]): 4
- Plant response rating, Wheat (wheat; [3]): 0
- Plant response rating, Wheat (wheat; [4]): 0
- Wheat plant response rating (wheat; [5]): 2
- Wheat plant response rating (wheat; [6]): 3
- Wheat plant response rating (wheat; [7]): 0
- Plant response rating, Ducksalad (duck salad; [12]): 0
- Ducksalad plant response rating (duck salad; [10]): 0
- Ducksalad plant response rating (duck salad; [11]): 0
- Plant response rating, Ducksalad (duck salad; [13]): 0
- Plant response rating, Giant foxtail (giant foxtail; [8]): 8
- Plant response rating, Giant foxtail (giant foxtail; [1]): 9
- Giant foxtail plant response rating (giant foxtail; [2]): 9
- Plant response rating, Giant foxtail (giant foxtail; [3]): 10
- Plant response rating, Giant foxtail (giant foxtail; [4]): 10
- Giant foxtail plant response rating (giant foxtail; [5]): 10
- Giant foxtail plant response rating (giant foxtail; [6]): 10
- Giant foxtail plant response rating (giant foxtail; [7]): 8
- Plant response rating, Morningglory (morningglory; [1]): 5
- Morningglory plant response rating (morningglory; [2]): 6
- Plant response rating, Morningglory (morningglory; [3]): 0
- Plant response rating, Morningglory (morningglory; [4]): 0
- Morningglory plant response rating (morningglory; [5]): 0
- Morningglory plant response rating (morningglory; [6]): 4
- Morningglory plant response rating (morningglory; [7]): 0
